In US8350079B2, “Treprostinil formulation” (United Therapeutics Corporation, priority 2008, dated 2013):

Columns and labels:
[1] = Stability tests of treprostinil forms (dimer formation, room temperature stability); format: physicochemical; settings: room temperature
Method: The anhydrous form of treprostinil (TREPROSTINIL) has been previously described, e.g., in J. Org. Chem. 2004, 69, 1890-1902. […] A larger amount of dimers can form at higher temperatures. However, dimer formation is negligible at 5° C. Therefore, anhydrous treprostinil must be refrigerated for storage and transport. In the past, treprostinil had to be refrigerated and shipped with ice packs to maintain low (2° C.-8° C.) temperatures.
The instability of anhydrous treprostinil also imposes challenges to its preparation. To obtain anhydrous treprostinil, wet compound from recrystallization was heated in a vacuum. […] Therefore, heating temperature must be carefully controlled to avoid high heat when drying treprostinil in order to remove all water, otherwise these two dimer impurities will be produced.
Data has been generated to characterize a monohydrate form of treprostinil. […] Treprostinil monohydrate can be stored and shipped with no special handling.

[2] = Accelerated stability of treprostinil monohydrate at 25, 30 and 40° C. (Lot #01M07033); format: physicochemical
Method: III. Accelerated Stability Data at 30 and 40° C. (Lot #01M07033).
In the present experiment, 500 mg Treprostinil monohydrate samples were stored in Nalgene 125 ml, HDPE bottles. The experimental procedure used in this experiment was the same as the described above procedure for lot D-1007-089.

- Stability at room temperature [1]: stable at room temperature
- 3AU90 ([2]; 3-Months, 25° C./60% RH): <0.05%
- 750W93 ([2]; 3-Months, 25° C./60% RH): 0.07%
- 751W93 ([2]; 3-Months, 25° C./60% RH): <0.05%
- Impurity 1 (RRT: 0.58) ([2]; 3-Months, 25° C./60% RH): 0.05%
- Total impurities ([2]; 3-Months, 25° C./60% RH): 0.4%
- UT-15 Assay ([2]; 3-Months, 25° C./60% RH): 99.5%
- UT-15 Ethyl Ester ([2]; 3-Months, 25° C./60% RH): 0.2%
- Water, KF ([2]; 3-Months, 25° C./60% RH): 4.8%
- 3AU90 ([2]; 3-Months, 30° C./65% RH): <0.05%
- 750W93 ([2]; 3-Months, 30° C./65% RH): 0.07%
- 751W93 ([2]; 3-Months, 30° C./65% RH): <0.05%
- Impurity 1 (RRT: 0.58) ([2]; 3-Months, 30° C./65% RH): 0.05%
- Total impurities ([2]; 3-Months, 30° C./65% RH): 0.4%
- UT-15 Assay ([2]; 3-Months, 30° C./65% RH): 99.5%
- UT-15 Ethyl Ester ([2]; 3-Months, 30° C./65% RH): 0.2%
- Water, KF ([2]; 3-Months, 30° C./65% RH): 4.8%
- 3AU90 ([2]; 3-Months, 40 C./75% RH): <0.05%
- 750W93 ([2]; 3-Months, 40 C./75% RH): 0.08%
- 751W93 ([2]; 3-Months, 40 C./75% RH): <0.05%
- Impurity 1 (RRT: 0.58) ([2]; 3-Months, 40 C./75% RH): 0.05%
- Total impurities ([2]; 3-Months, 40 C./75% RH): 0.4%
- UT-15 Assay ([2]; 3-Months, 40 C./75% RH): 99.4%
- UT-15 Ethyl Ester ([2]; 3-Months, 40 C./75% RH): 0.2%
- Water, KF ([2]; 3-Months, 40 C./75% RH): 4.8%
- 3AU90 ([2]; 6-Months, 25° C./60% RH): 0.06%
- 750W93 ([2]; 6-Months, 25° C./60% RH): 0.07%
- 751W93 ([2]; 6-Months, 25° C./60% RH): <0.05%
- Total impurities ([2]; 6-Months, 25° C./60% RH): 0.4%
- UT-15 Assay ([2]; 6-Months, 25° C./60% RH): 99.0%
- UT-15 Ethyl Ester ([2]; 6-Months, 25° C./60% RH): 0.2%
- Water, KF ([2]; 6-Months, 25° C./60% RH): 4.7%
- 3AU90 ([2]; 6-Months, 30° C./65% RH): 0.06%
- 750W93 ([2]; 6-Months, 30° C./65% RH): 0.07%
- 751W93 ([2]; 6-Months, 30° C./65% RH): <0.05%
- Total impurities ([2]; 6-Months, 30° C./65% RH): 0.4%
- UT-15 Assay ([2]; 6-Months, 30° C./65% RH): 99.1%
- UT-15 Ethyl Ester ([2]; 6-Months, 30° C./65% RH): 0.2%
- Water, KF ([2]; 6-Months, 30° C./65% RH): 4.7%
- 3AU90 ([2]; 6-Months, 40 C./75% RH): 0.07%
- 750W93 ([2]; 6-Months, 40 C./75% RH): 0.09%
- 751W93 ([2]; 6-Months, 40 C./75% RH): 0.05%
- Total impurities ([2]; 6-Months, 40 C./75% RH): 0.4%
- UT-15 Assay ([2]; 6-Months, 40 C./75% RH): 99.7%
- UT-15 Ethyl Ester ([2]; 6-Months, 40 C./75% RH): 0.2%
- Water, KF ([2]; 6-Months, 40 C./75% RH): 4.7%
- 3AU90 ([2]; 12-Months, 25° C./60% RH): <0.05%
- 750W93 ([2]; 12-Months, 25° C./60% RH): 0.08%
- 751W93 ([2]; 12-Months, 25° C./60% RH): <0.05%
- Impurity 1 (RRT: 0.58) ([2]; 12-Months, 25° C./60% RH): 0.06%
- Total impurities ([2]; 12-Months, 25° C./60% RH): 0.4%
- UT-15 Assay ([2]; 12-Months, 25° C./60% RH): 99.8%
- UT-15 Ethyl Ester ([2]; 12-Months, 25° C./60% RH): 0.2%
- Water, KF ([2]; 12-Months, 25° C./60% RH): 4.7%
- 3AU90 ([2]; 12-Months, 40 C./75% RH): <0.05%
- 750W93 ([2]; 12-Months, 40 C./75% RH): 0.09%
- 751W93 ([2]; 12-Months, 40 C./75% RH): 0.05%
- Impurity 1 (RRT: 0.58) ([2]; 12-Months, 40 C./75% RH): 0.05%
- Total impurities ([2]; 12-Months, 40 C./75% RH): 0.4%
- UT-15 Assay ([2]; 12-Months, 40 C./75% RH): 98.6%
- UT-15 Ethyl Ester ([2]; 12-Months, 40 C./75% RH): 0.2%
- Water, KF ([2]; 12-Months, 40 C./75% RH): 4.8%
- 3AU90 ([2]; Initial): 0.1%
- 750W93 ([2]; Initial): 0.08%
- 751W93 ([2]; Initial): <0.05%
- Total impurities ([2]; Initial): 0.4%
- UT-15 Assay ([2]; Initial): 98.7%
- UT-15 Ethyl Ester ([2]; Initial): 0.2%
- Water, KF ([2]; Initial): 4.5%
SMILES: CCCCC[C@H](O)CC[C@@H]1[C@H]2Cc3cccc(OCC(=O)O)c3C[C@H]2C[C@H]1O [TREPROSTINIL Lot# D-1007-089, treprostinil monohydrate]
